Source: US8541460B2, “PDK-1/Akt signaling inhibitors” (The Ohio State University, priority 2003, dated 2013)

Key:
UACC-62 = assay: NCI DTP cell line screen (SRB), Melanoma; type: cell-based
MCF7 = assay: NCI DTP cell line screen (SRB), Breast Cancer; type: cell-based, human
Method: (§1) Screening of compounds 70 and 71 against several cancer cell lines The human tumor cell lines of the cancer screening panel are grown in RPMI 1640 medium containing 5% fetal bovine serum and 2 mM L-glutamine. For a typical screening experiment, cells are inoculated into 96 well microtiter plates in 100 μL at plating densities ranging from 5,000 to 40,000 cells/well depending on the doubling time of individual cell lines. After cell inoculation, the microtiter plates are incubated at 37° C., 5% CO2, 95% air and 100% relative humidity for 24 h prior to addition of experimental drugs.
(§2) After 24 h, two plates of each cell line are fixed in situ with TCA, to represent a measurement of the cell population for each cell line at the time of drug addition (Tz). Experimental drugs are solubilized in dimethyl sulfoxide at 400-fold the desired final maximum test concentration and stored frozen prior to use. At the time of drug addition, an aliquot of frozen concentrate is thawed and diluted to twice the desired final maximum test concentration with complete medium containing 50 μg/ml gentamicin. Additional four, 10-fold or ½ log serial dilutions are made to provide a total of five drug concentrations plus control. Aliquots of 100 μl of these different drug dilutions are added to the appropriate microtiter wells already containing 100 μl of medium, resulting in the required final drug concentrations.
(§3) Following drug addition, the plates are incubated for an additional 48 h at 37° C., 5% CO2, 95% air, and 100% relative humidity. For adherent cells, the assay is terminated by the addition of cold TCA. Cells are fixed in situ by the gentle addition of 50 μl of cold 50% (w/v) TCA (final concentration, 10% TCA) and incubated for 60 minutes at 4° C. The supernatant is discarded, and the plates are washed five times with tap water and air dried. Sulforhodamine B (SRB) solution (100 μl) at 0.4% (w/v) in 1% acetic acid is added to each well, and plates are incubated for 10 minutes at room temperature. After staining, unbound dye is removed by washing five times with 1% acetic acid and the plates are air dried. Bound stain is subsequently solubilized with 10 mM trizma base, and the absorbance is read on an automated plate reader at a wavelength of 515 nm. For suspension cells, the methodology is the same except that the assay is terminated by fixing settled cells at the bottom of the wells by gently adding 50 μl of 80% TCA (final concentration, 16% TCA). Using the seven absorbance measurements [time zero, (Tz), control growth, (C), and test growth in the presence of drug at the five concentration levels (Ti)], the percentage growth is calculated at each of the drug concentrations levels. Percentage growth inhibition is calculated as: [(Ti−Tz)/(C−Tz)]×100 for concentrations for which Ti>/=Tz [(Ti−Tz)/Tz]×100 for concentrations for which Ti<Tz
(§4) Three dose response parameters are calculated for each experimental agent. […] The drug concentration resulting in total growth inhibition (TGI) is calculated from Ti=Tz. […] Values are calculated for each of these three parameters if the level of activity is reached; however, if the effect is not reached or is exceeded, the value for that parameter is expressed as greater or less than the maximum or minimum concentration tested.
(§5) The methods described were used to test compounds 70 and 71 on a panel of sixty cell lines under a screening service provided by the Developmental Therapeutics Program at the National Institutes of Health. Shown in FIG. 1C are 1, RPMI-8226 leukemia cells; 2; NCI-H322M non-small cell lung cancer cells; 3, HT29 colon cancer cells; 4, U251 CNS cancer cells; 5, SK-MEL-28 melanoma cancer cells; 6, SK-OV-3 ovarian cancer cells; 7, RXF 393 renal cancer cells; 8, PC-3 prostate cancer cells; 9, MDA-MB-231 breast cancer cells.

MDA-MB-435 = assay: NCI DTP cell line screen (SRB), Breast Cancer; type: cell-based, human
Method: as §1, §2, §3, §4, §5

HOP-92 = assay: NCI DTP cell line screen (SRB), Non-Small Cell Lung Cancer; type: cell-based
phospho-473Ser Akt = assay: Western blot of Akt and phospho-Akt in PC-3 cells; type: cell-based, human; conditions: 1 μM
Method: Immunoblotting. The general procedure for the Western blot analysis of Akt and phospho-Akt is described as follows. Cells were washed in PBS, resuspended in SDS sample buffer sonicated by an ultrasonic sonicator for 5 sec, and boiled for 5 min. After brief centrifugation, equivalent protein concentrations from the soluble fractions were resolved in 10% SDS-polyacrylamide gels on a Minigel apparatus, and transferred to a nitrocellulose membrane using a semi-dry transfer cell. The transblotted membrane was washed three times with TBS containing 0.05% Tween 20 (TBST). After blocking with TBST containing 5% nonfat milk for 60 min., the membrane was incubated with the primary antibody at 1:1,000 dilution in TBST-5% low fat milk at 4° C. for 12 h, and was then washed three times with TBST. The membrane was probed with goat anti-rabbit IgG-HRP conjugates (1:1,000) for 1 h at room temperature, and was washed with TBST three times. The immunoblots were visualized by enhanced chemiluminescence.

PC-3 = assay: NCI DTP cell line screen (SRB), Prostate Cancer; type: cell-based
Method: as §1, §2, §3, §4, §5

CCRF-CEM = assay: NCI DTP cell line screen (SRB), Leukemia; type: cell-based
[1] = read-out: LC50 (the source's name)

N=C(N)Nc1ccc(-n2nc(C(F)(F)F)cc2-c2ccc3c(ccc4ccccc43)c2)cc1 [Compound 71, 4-[5-(2-Phenanthrenyl)-3-(trifluoromethyl)-1H-pyrazol-1-yl]-phenyl-guanidine]
GI50 (UACC-62): 1440 nM | TGI (UACC-62): 2.74E−06 | Mean Optical Densities (UACC-62; Log10 Concentration −4.0): 0.272 | Percent Growth (UACC-62; Log10 Concentration −4.0): −60% | Mean Optical Densities (UACC-62; Log10 Concentration −5.0): −0.041 | Percent Growth (UACC-62; Log10 Concentration −5.0): −100% | Mean Optical Densities (UACC-62; Log10 Concentration −6.0): 1.301 | Percent Growth (UACC-62; Log10 Concentration −6.0): 78% | Mean Optical Densities (UACC-62; Log10 Concentration −7.0): 1.338 | Percent Growth (UACC-62; Log10 Concentration −7.0): 83% | Mean Optical Densities (UACC-62; Log10 Concentration −8.0): 1.323 | Percent Growth (UACC-62; Log10 Concentration −8.0): 81% | CC50 (UACC-62; [1]): 5240 nM | GI50 (MCF7): 1820 nM | Mean Optical Densities (MCF7; Log10 Concentration −4.0): 0.229 | Percent Growth (MCF7; Log10 Concentration −4.0): −49% | Mean Optical Densities (MCF7; Log10 Concentration −5.0): 0.073 | Percent Growth (MCF7; Log10 Concentration −5.0): −84% | Mean Optical Densities (MCF7; Log10 Concentration −6.0): 1.507 | Percent Growth (MCF7; Log10 Concentration −6.0): 97% | Mean Optical Densities (MCF7; Log10 Concentration −7.0): 1.340 | Percent Growth (MCF7; Log10 Concentration −7.0): 82% | Mean Optical Densities (MCF7; Log10 Concentration −8.0): 1.467 | Percent Growth (MCF7; Log10 Concentration −8.0): 93% | TGI (MCF7; MCP7, in M (unit assumed)): 3.44E−06 | GI50 (MDA-MB-435): 1700 nM | Mean Optical Densities (MDA-MB-435; Log10 Concentration −4.0): 0.295 | Percent Growth (MDA-MB-435; Log10 Concentration −4.0): −27% | Mean Optical Densities (MDA-MB-435; Log10 Concentration −5.0): −0.073 | Percent Growth (MDA-MB-435; Log10 Concentration −5.0): −100% | Mean Optical Densities (MDA-MB-435; Log10 Concentration −6.0): 1.444 | Percent Growth (MDA-MB-435; Log10 Concentration −6.0): 95% | Mean Optical Densities (MDA-MB-435; Log10 Concentration −7.0): 1.382 | Percent Growth (MDA-MB-435; Log10 Concentration −7.0): 89% | Mean Optical Densities (MDA-MB-435; Log10 Concentration −8.0): 1.376 | Percent Growth (MDA-MB-435; Log10 Concentration −8.0): 89% | TGI (MDA-MB-435; in M (unit assumed)): 3.07E−06 | GI50 (HOP-92): 1010 nM | TGI (HOP-92): 2.26E−06 | Mean Optical Densities (HOP-92; Log10 Concentration −4.0): 0.767 | Percent Growth (HOP-92; Log10 Concentration −4.0): −28% | Mean Optical Densities (HOP-92; Log10 Concentration −5.0): 0.089 | Percent Growth (HOP-92; Log10 Concentration −5.0): −92% | Mean Optical Densities (HOP-92; Log10 Concentration −6.0): 1.361 | Percent Growth (HOP-92; Log10 Concentration −6.0): 50% | Mean Optical Densities (HOP-92; Log10 Concentration −7.0): 1.541 | Percent Growth (HOP-92; Log10 Concentration −7.0): 82% | Mean Optical Densities (HOP-92; Log10 Concentration −8.0): 1.567 | Percent Growth (HOP-92; Log10 Concentration −8.0): 86% | phospho-Akt level (phospho-473Ser Akt): substantial decrease in the phospho-Akt level | GI50 (PC-3): 1380 nM | TGI (PC-3): 2.67E−06 | Mean Optical Densities (PC-3; Log10 Concentration −4.0): 0.179 | Percent Growth (PC-3; Log10 Concentration −4.0): −26% | Mean Optical Densities (PC-3; Log10 Concentration −5.0): −0.022 | Percent Growth (PC-3; Log10 Concentration −5.0): −100% | Mean Optical Densities (PC-3; Log10 Concentration −6.0): 0.857 | Percent Growth (PC-3; Log10 Concentration −6.0): 75% | Mean Optical Densities (PC-3; Log10 Concentration −7.0): 0.846 | Percent Growth (PC-3; Log10 Concentration −7.0): 73% | Mean Optical Densities (PC-3; Log10 Concentration −8.0): 0.862 | Percent Growth (PC-3; Log10 Concentration −8.0): 75% | GI50 (CCRF-CEM): 1230 nM | TGI (CCRF-CEM): 2.48E−06 | Mean Optical Densities (CCRF-CEM; Log10 Concentration −4.0): 0.140 | Percent Growth (CCRF-CEM; Log10 Concentration −4.0): −53% | Mean Optical Densities (CCRF-CEM; Log10 Concentration −5.0): 0.002 | Percent Growth (CCRF-CEM; Log10 Concentration −5.0): −99% | Mean Optical Densities (CCRF-CEM; Log10 Concentration −6.0): 0.718 | Percent Growth (CCRF-CEM; Log10 Concentration −6.0): 65% | Mean Optical Densities (CCRF-CEM; Log10 Concentration −7.0): 0.811 | Percent Growth (CCRF-CEM; Log10 Concentration −7.0): 79% | Mean Optical Densities (CCRF-CEM; Log10 Concentration −8.0): 0.808 | Percent Growth (CCRF-CEM; Log10 Concentration −8.0): 78% | CC50 (CCRF-CEM; [1]): 5000 nM
